35 compounds from patent US9334263B2, “Compositions useful for treating disorders related to kit” (BLUEPRINT MEDICINES CORPORATION, priority 2013, dated 2016) can be followed below.

For assay [1], the target named is T1, D816V Kit (Homo sapiens, UniProt P10721, D816V).
T1 construct: purchased Carna Bioscience 08-156
As to the kind of experiment: Kit D816V assay at Km (Caliper electrophoretic mobility shift). In kind it is biochemical. Particulars: 15 uM ATP, 25 C, 90 minutes. Summed up:
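Read-out is the ratio of phosphorylated to unphosphorylated fluorescent peptide, resolved by mobility shift on a Caliper EZ Reader 2.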

The target in assay [2] is T2, Kit D816V (HMC1.2 cells, Kit V560G and D816V) (Homo sapiens, UniProt P10721, D816V/V560G).
T2 construct: endogenous in cells; host or cells: HMC1.2 cells
As to the kind of experiment: HMC1.2 autophosphorylation assay (AlphaLISA, phospho-Y719 c-Kit). Format: cell-based. Particulars: Kit autophosphorylation at tyrosine 719, 90 minutes, read-out: Cellular Activity. The method in brief: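 Serum-starved (overnight, serum-free IMDM) HMC1.2 cells were treated for 90 min with a 10-point compound series (25 uM–95.4 pM, 0.25% DMSO final). Lysates were probed with phospho-Y719 and total c-Kit antibodies (15 nM final) plus AlphaLISA acceptor and streptavidin donor beads (2 h each, RT), with AlphaScreen read-out.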

Assay [3] concerns the target T3, PDGFRA D842V (Homo sapiens, UniProt P16234, D842V).
T3 construct: purchased ProQinase 0761-0000-1
As to the kind of experiment: PDGFRA D842V assay at Km (Caliper electrophoretic mobility shift). Particulars: 15 uM ATP, 25 C, 90 minutes; read-out: PDFGRA D842V. Format: biochemical. How it is done:
(§1) In order to assess the activity of chemical compounds against the relevant kinase of interest, the Caliper LifeSciences electrophoretic mobility shift technology platform is used. Fluorescently labeled substrate peptide is incubated in the presence of kinase and ATP so that a […] proportion of the peptide is phosphorylated. At the end of the reaction, the mix of phosphorylated (product) and non-phosphorylated (substrate) peptides are passed through the microfluidic system of the Caliper EZ Reader 2, under an applied potential difference. The presence of the phosphate group on the product peptide provides a difference in mass and charge between those of the substrate peptide, resulting in a separation of the substrate and product pools in the sample. As the pools pass a LEDS within the instrument, these pools are detected and resolved as separate peaks. The ratio between these peaks therefore reflects the activity of the chemical matter at that concentration in that well, under those conditions.
The reaction was stopped by the addition of 70 ul of Stop buffer (100 mM HEPES pH 7.5, 0.015% Brij 35, 35 mM EDTA and 0.2% of Coating Reagent 3 (Caliper Lifesciences)). The plate was then read on a Caliper EZReader 2 (protocol settings: −1.9 psi, upstream voltage −500, downstream voltage −3000, post sample sip 38 s).

In assay [4] the target is T4, wild type Kit (Homo sapiens, UniProt P10721).
T4 construct: purchased Carna Bioscience 08-156
As to the kind of experiment: Kit wild type assay at Km (Caliper electrophoretic mobility shift). Format: biochemical. Particulars: 400 uM ATP, 25 C, 90 minutes; read-out: WT KIT. How it is done:
as §1
The reaction was stopped by the addition of 70 ul of Stop buffer (100 mM HEPES pH 7.5, 0.015% Brij 35, 35 mM EDTA and 0.2% of Coating Reagent 3 (Caliper Lifesciences)). The plate was then read on a Caliper EZReader 2 (protocol settings: −1.9 psi, upstream voltage −700, downstream voltage −3000, post sample sip 35 s).

Some results are limits rather than exact numbers.

T3 sequence (P16234 24-1089 D842V): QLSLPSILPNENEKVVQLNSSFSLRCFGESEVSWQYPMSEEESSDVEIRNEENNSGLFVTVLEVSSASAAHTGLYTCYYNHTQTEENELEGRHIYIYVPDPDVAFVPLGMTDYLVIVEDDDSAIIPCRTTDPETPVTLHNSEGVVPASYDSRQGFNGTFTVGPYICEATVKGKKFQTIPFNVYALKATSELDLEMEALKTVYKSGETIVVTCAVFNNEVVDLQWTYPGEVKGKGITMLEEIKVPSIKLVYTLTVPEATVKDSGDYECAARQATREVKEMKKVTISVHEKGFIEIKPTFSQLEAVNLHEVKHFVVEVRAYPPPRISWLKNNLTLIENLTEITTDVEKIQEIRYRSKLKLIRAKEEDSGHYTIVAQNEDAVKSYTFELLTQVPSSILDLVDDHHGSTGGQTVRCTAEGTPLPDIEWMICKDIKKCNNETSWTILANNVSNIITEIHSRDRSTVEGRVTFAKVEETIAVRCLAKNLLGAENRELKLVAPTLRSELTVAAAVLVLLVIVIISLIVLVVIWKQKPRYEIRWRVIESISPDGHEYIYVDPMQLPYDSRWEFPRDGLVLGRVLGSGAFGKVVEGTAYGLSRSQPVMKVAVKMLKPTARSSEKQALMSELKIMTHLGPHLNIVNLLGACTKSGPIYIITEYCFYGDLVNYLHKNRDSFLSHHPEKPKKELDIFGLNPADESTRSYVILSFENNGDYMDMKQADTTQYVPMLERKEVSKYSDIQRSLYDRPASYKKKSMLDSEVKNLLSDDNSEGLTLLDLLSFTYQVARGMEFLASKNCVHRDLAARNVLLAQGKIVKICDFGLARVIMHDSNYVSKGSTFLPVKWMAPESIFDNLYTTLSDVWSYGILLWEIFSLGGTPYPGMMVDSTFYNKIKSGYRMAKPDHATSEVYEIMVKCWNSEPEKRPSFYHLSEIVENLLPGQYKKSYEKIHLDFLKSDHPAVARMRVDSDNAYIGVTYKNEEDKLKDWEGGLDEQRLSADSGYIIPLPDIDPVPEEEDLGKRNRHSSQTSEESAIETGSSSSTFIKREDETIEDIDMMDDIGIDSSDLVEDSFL
T2 sequence (P10721 26-976 V560G/D816V): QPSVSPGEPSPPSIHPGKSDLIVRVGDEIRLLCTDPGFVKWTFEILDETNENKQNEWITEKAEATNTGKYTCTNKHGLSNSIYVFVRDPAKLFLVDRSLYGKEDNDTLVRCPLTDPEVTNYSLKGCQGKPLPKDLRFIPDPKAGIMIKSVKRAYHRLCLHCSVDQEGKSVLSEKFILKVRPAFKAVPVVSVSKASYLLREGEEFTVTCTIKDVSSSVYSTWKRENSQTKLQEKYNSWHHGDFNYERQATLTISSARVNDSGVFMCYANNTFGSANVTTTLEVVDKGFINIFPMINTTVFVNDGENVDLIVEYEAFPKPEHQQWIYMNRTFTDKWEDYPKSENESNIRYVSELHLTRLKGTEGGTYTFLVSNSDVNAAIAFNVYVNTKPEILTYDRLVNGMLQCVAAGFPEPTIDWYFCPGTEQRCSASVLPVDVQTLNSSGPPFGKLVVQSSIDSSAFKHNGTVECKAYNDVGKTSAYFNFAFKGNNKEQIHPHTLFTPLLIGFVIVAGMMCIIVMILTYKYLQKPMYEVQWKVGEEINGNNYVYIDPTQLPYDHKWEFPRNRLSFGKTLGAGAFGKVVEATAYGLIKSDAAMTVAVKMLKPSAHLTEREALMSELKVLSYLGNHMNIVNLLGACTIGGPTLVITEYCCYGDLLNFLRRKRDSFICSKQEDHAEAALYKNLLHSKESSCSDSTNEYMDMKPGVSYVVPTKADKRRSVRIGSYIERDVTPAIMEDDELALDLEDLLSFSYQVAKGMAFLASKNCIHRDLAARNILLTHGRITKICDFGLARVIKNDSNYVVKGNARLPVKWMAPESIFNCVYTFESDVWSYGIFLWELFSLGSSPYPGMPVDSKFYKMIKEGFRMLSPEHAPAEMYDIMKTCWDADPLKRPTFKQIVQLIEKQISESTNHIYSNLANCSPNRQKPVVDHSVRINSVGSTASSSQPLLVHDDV
T1 sequence (P10721 26-976 D816V): as the sequence (P10721 26-976 V560G/D816V) above, with G535V counted along it
T4 sequence (P10721 26-976): as the sequence (P10721 26-976 V560G/D816V) above, with G535V, V791D counted along it

As to `OC[C@@H](O)c1ccc(Nc2ncnc(N3CCN(c4ncc(Cc5ccccc5)cn4)CC3)n2)cc1` (single isomer, unassigned) [Compound 56], the IC50 in assay [1] was less than 1 nM; in assay [2], 10 to 100 nM; in assay [3] it was less than 1 nM.
For `OC[C@H](O)c1ccc(Nc2ncnc(N3CCN(c4ncc(Cc5ccccc5)cn4)CC3)n2)cc1` (single isomer, unassigned) [Compound 57], the IC50 was less than 1 nM in assay [1], 10 to 100 nM in assay [2] and 1.01 to 10 nM in assay [3].
For the compound `c1ccc(Cc2cnc(N3CCN(c4ncnc(Nc5cccc(O[C@@H]6CCNC6)c5)n4)CC3)nc2)cc1` [Compound 106], the IC50 in assay [3] was 1.01 to 10 nM.
Turning to `c1ccc(Cc2cnc(N3CCN(c4ncnc(Nc5cnn(CC6CCOCC6)c5)n4)CC3)nc2)cc1` [Compound 118], the IC50 in assay [1] is less than 1 nM; in assay [2], 10 to 100 nM; in assay [4], less than 10 nM.
On to `Fc1ccccc1Cc1cnc(N2CCN(c3ncnc(Nc4ccc5c(c4)CNCC5)n3)CC2)nc1` [Compound 127], for which the IC50 is less than 1 nM in assay [1], 10 to 100 nM in assay [2] and less than 10 nM in assay [4].
In the case of `C[C@@H]1CN(c2ncnc(Nc3ccc(P(C)(C)=O)cc3)n2)CCN1c1ncc(Cc2ccccc2)cn1` [Compound 128], the IC50 lay in the range of 1.01 to 10 nM in assay [1], 100 to 1000 nM in assay [2] and 11 to 100 nM in assay [4].
For the compound `CS(=O)(=O)c1ccc(Nc2ncnc(N3CCN(c4ncc(Cc5ccccc5)c(O)n4)CC3)n2)cc1` [Compound 143], the IC50 lay within 1.01 to 10 nM in assay [1], 100 to 1000 nM in assay [2] and 11 to 100 nM in assay [4].
On to `CP(C)(=O)c1ccc(Nc2ncnc(N3CCN(c4ncc(Nc5ccc(F)cc5)cn4)CC3)n2)cc1` [Compound 144], for which the IC50 in assay [1] is 1.01 to 10 nM; in assay [2], 100 to 1000 nM; in assay [4], 11 to 100 nM.
Turning to `CN1CCN(c2ccc(Nc3ncnc(N4CCN(c5ncc(Cc6ccccc6)cn5)CC4)n3)cc2)CC1` [Compound 156], the IC50 was less than 1 nM in assay [1], 10 to 100 nM in assay [2] and less than 10 nM in assay [4].
For `Cc1cc(N2CCNCC2)ccc1Nc1ncnc(N2CCN(c3ncc(Cc4ccccc4)cn3)CC2)n1` [Compound 158], in that order: 1.01 to 10 nM, 100 to 1000 nM and 11 to 100 nM.
For `C[C@@H]1CN(c2ncnc(Nc3ccc(N4CCOCC4)cc3)n2)CCN1c1ncc(Cc2ccccc2)cn1` [Compound 159], in that order: 1.01 to 10 nM, 100 to 1000 nM and 11 to 100 nM.
With `c1ccc(Cc2cnc(N3CCN(c4ncnc(Nc5cccc(CN6CCOCC6)c5)n4)CC3)nc2)cc1` [Compound 160], the IC50 is 1.01 to 10 nM in assay [1], 100 to 1000 nM in assay [2] and 11 to 100 nM in assay [4].
Turning to `c1ccc(Cc2cnc(N3CCN(c4ncnc(Nc5ccc(O[C@H]6CCCNC6)cc5)n4)CC3)nc2)cc1` [Compound 162], the results for the IC50 in assay [1], in assay [2] and in assay [4] were less than 1 nM, less than 10 nM and less than 10 nM, respectively.
As to `OCCN1CCc2ccc(Nc3ncnc(N4CCN(c5ncc(Cc6ccccc6)cn5)CC4)n3)cc2C1` [Compound 163], the IC50 was less than 1 nM in assay [1], 10 to 100 nM in assay [2] and less than 10 nM in assay [4].
For `OCCC1CN(c2ncnc(Nc3ccc4c(c3)CNCC4)n2)CCN1c1ncc(Cc2ccccc2)cn1` (stereo not shown) [Compound 164] the same measures were less than 1 nM, less than 10 nM and less than 10 nM.
In the case of `OC[C@H]1CCCN1c1ccc(Nc2ncnc(N3CCN(c4ncc(Cc5ccccc5)cn4)CC3)n2)cc1` [Compound 167], the IC50 in assay [1] lay in the range of 1.01 to 10 nM; in assay [2] it was 10 to 100 nM; in assay [4], 100 to 1000 nM.
With `OC[C@@H]1CCCN1c1ccc(Nc2ncnc(N3CCN(c4ncc(Cc5ccccc5)cn4)CC3)n2)cc1` [Compound 168], the IC50 in assay [1] lay in the range of 1.01 to 10 nM; in assay [2] it was 10 to 100 nM; in assay [4] it was 11 to 100 nM.
Consider `c1ccc(Cc2cnc(N3CCN(c4ncnc(Nc5ccc(OC[C@H]6CCCN6)cc5)n4)CC3)nc2)cc1` [Compound 169], for which the values for the IC50 in assay [1], in assay [2] and in assay [4] were less than 1 nM, 10 to 100 nM and 11 to 100 nM, respectively.
For `c1ccc(Cc2cnc(N3CCN(c4ncnc(Nc5ccc(OC[C@@H]6CCCN6)cc5)n4)CC3)nc2)cc1` [Compound 170], the IC50 in assay [1] was less than 1 nM; in assay [2], 10 to 100 nM; in assay [4], 11 to 100 nM.
For `CN1CCO[C@@H](Cn2cc(Nc3ncnc(N4CCN(c5ncc(Cc6ccccc6)cn5)CC4)n3)cn2)C1` [Compound 180] the same measures were less than 1 nM, 10 to 100 nM and 11 to 100 nM.
With `CN1CCO[C@H](Cn2cc(Nc3ncnc(N4CCN(c5ncc(Cc6ccccc6)cn5)CC4)n3)cn2)C1` [Compound 181], the IC50 is less than 1 nM in assay [1], 10 to 100 nM in assay [2] and less than 10 nM in assay [4].
For `OC1(Cn2cc(Nc3ncnc(N4CCN(c5ncc(Cc6ccccc6)cn5)CC4)n3)cn2)CCNCC1` [Compound 182] the same measures were less than 1 nM, 10 to 100 nM and 11 to 100 nM.
Consider `FC1(F)CN(Cc2cccc(Nc3ncnc(N4CCN(c5ncc(Cc6ccccc6)cn5)CC4)n3)c2)C1` [Compound 188], for which the results for the IC50 in assay [1], in assay [2] and in assay [4] were 1.01 to 10 nM, 10 to 100 nM and 11 to 100 nM, respectively.
For `FC1(Cn2cc(Nc3ncnc(N4CCN(c5ncc(Cc6ccccc6)cn5)CC4)n3)cn2)CCNCC1` [Compound 191], the IC50 in assay [1] is less than 1 nM; in assay [2], less than 10 nM; in assay [4], less than 10 nM.
On to `Cc1cc(N2CCN(C)CC2)ccc1Nc1ncnc(N2CCN(c3ncc(Cc4ccccc4)cn3)CC2)n1` [Compound 212], for which the figures for the IC50 in assay [1], in assay [2] and in assay [4] were 1.01 to 10 nM, 100 to 1000 nM and 11 to 100 nM, respectively.
On to `COCCN1CCc2ccc(Nc3ncnc(N4CCN(c5ncc(Cc6ccccc6)cn5)CC4)n3)cc2C1` [Compound 215], for which the figures for the IC50 in assay [1], in assay [2] and in assay [4] were less than 1 nM, 10 to 100 nM and less than 10 nM, respectively.
As for `CN1CCC[C@@H](Oc2ccc(Nc3ncnc(N4CCN(c5ncc(Cc6ccccc6)cn5)CC4)n3)cc2)C1` [Compound 216], the IC50 in assay [1] is less than 1 nM; in assay [2], less than 10 nM; in assay [4] it was less than 10 nM.
On to `CN1CCC[C@H](Oc2ccc(Nc3ncnc(N4CCN(c5ncc(Cc6ccccc6)cn5)CC4)n3)cc2)C1` [Compound 217], for which the IC50 in assay [1] was less than 1 nM; in assay [2], less than 10 nM; in assay [4], less than 10 nM.
As to `CN1CCC[C@@H]1COc1ccc(Nc2ncnc(N3CCN(c4ncc(Cc5ccccc5)cn4)CC3)n2)cc1` [Compound 218], the IC50 is less than 1 nM in assay [1], 10 to 100 nM in assay [2] and less than 10 nM in assay [4].
On to `CN1CCC[C@H]1COc1ccc(Nc2ncnc(N3CCN(c4ncc(Cc5ccccc5)cn4)CC3)n2)cc1` [Compound 219], for which the IC50 is less than 1 nM in assay [1], 10 to 100 nM in assay [2] and less than 10 nM in assay [4].
With `CN1CCN(c2ccc(Nc3ncnc(N4CCN(c5ncc(Cc6ccccc6)cn5)CC4)n3)cc2F)CC1` [Compound 237], the results for the IC50 in assay [1], in assay [2] and in assay [4] were less than 1 nM, 10 to 100 nM and 11 to 100 nM, respectively.
Take `CN(C)[C@H]1CCN(Cc2cccc(Nc3ncnc(N4CCN(c5ncc(Cc6ccccc6)cn5)CC4)n3)c2)C1` [Compound 260]: the IC50 was less than 1 nM in assay [1], 10 to 100 nM in assay [2] and less than 10 nM in assay [4].
`CN1CCC[C@@H]1COc1ccc(Nc2ncnc(N3CCN(c4ncc(Cc5ccccc5)c(N)n4)CC3)n2)cc1` [Compound 265]: the IC50 was less than 1 nM in assay [1], less than 10 nM in assay [2] and less than 10 nM in assay [4].
Regarding `CN1CCC[C@H]1COc1ccc(Nc2ncnc(N3CCN(c4ncc(Cc5ccccc5)c(N)n4)CC3)n2)cc1` [Compound 266], the figures for the IC50 in assay [1], in assay [2] and in assay [4] were less than 1 nM, less than 10 nM and less than 10 nM, respectively.
Turning to `FC(F)(F)CN1CCc2ccc(Nc3ncnc(N4CCN(c5ncc(Cc6ccccc6)cn5)CC4)n3)cc2C1` [Compound 268], the IC50 in assay [1] fell in the range of 1.01 to 10 nM; in assay [2], 100 to 1000 nM; in assay [4], 100 to 1000 nM.
